In ChEMBL document CHEMBL1141949, “In silico fragment-based discovery of indolin-2-one analogues as potent DNA gyrase inhibitors” (Bioorg Med Chem Lett, 2005):

The molecules below were run against DNA gyrase (Escherichia coli) (UniProt P0AES6+P0AES4) (assay: In vitro activity against Escherichia coli DNA gyrase supercoiling).
Type: protein-complex assay
`O=C1Nc2ccccc2/C1=C/c1ccccc1N1CCOCC1` showed an MNEC greater than 100 µM.
With `O=C1Nc2ccccc2/C1=C/c1c[nH]c(-c2ccccc2)n1` the MNEC was greater than 100 µM.
Work on `O=C1Nc2ccccc2/C1=C/c1cccnc1` yielded an MNEC greater than 100 µM.
In the case of `Cc1[nH]c2ccccc2c1/C=C1\C(=O)Nc2ccccc21`, the MNEC was greater than 100 µM.
`O=C1Nc2ccccc2/C1=N/c1ccc(C(F)(F)F)cc1` gave an MNEC greater than 100 µM.
In the case of `Cc1ccc2c(c1)/C(=N/N=C/c1c(O)ccc3ccccc13)C(=O)N2`, the MNEC was greater than 100 µM.
For `CCc1nc(/C=C2\C(=O)Nc3ccccc32)c[nH]1`, the MNEC was less than 100 µM.
`O=C1Nc2ccccc2/C1=C/c1cnc[nH]1` gave an MNEC of 100 µM.
`O=C1Nc2ccccc2/C1=C/c1ccc([N+](=O)[O-])cc1` showed an MNEC greater than 100 µM.
`O=C(/N=N/c1c(O)[nH]c2ccc(Br)cc12)c1ccncc1` gave an MNEC greater than 100 µM.
In the case of `O=C1N=C(N2CCOCC2)S/C1=C1\C(=O)Nc2ccccc21`, the MNEC was greater than 100 µM.
`CCCCc1nc(/C=C2\C(=O)Nc3ccccc32)c[nH]1` showed an MNEC of 50 µM.
`CCc1nc(C)c(/C=C2\C(=O)Nc3ccccc32)[nH]1` showed an MNEC of 25 µM.
With `O=C1Nc2ccccc2/C1=C/c1c[nH]nc1-c1cccs1` the MNEC was greater than 100 µM.
`Oc1[nH]c2ccccc2c1/N=N/c1n[nH]c2c3ccccc3nc-2n1` was tested, and the MNEC was greater than 100 µM.
In the case of `O=C1Nc2ccccc2/C1=C/c1c[nH]c2cc([N+](=O)[O-])ccc12`, the MNEC was greater than 100 µM.
